The record followed here is PubChem BioAssay (NCI).

Among the test systems are A549 NSCLC; BT-549 breast; HCT-116 colon; HCT-15 colon; HOP-92 NSCLC; HT29 colon; IGROV1 ovarian; LOX IMVI melanoma; MALME-3M melanoma; MCF7 breast; MDA-MB-231 breast; NCI-H522 lung; OVCAR-5 ovarian; RXF 393 renal; SF-539 CNS; SK-MEL-28 melanoma; SNB-75 CNS; SR leukemia; T-47D breast; TK-10 renal.
What all share (assay): growth of human tumour cells (NCI), 48 h

Structures are written as SMILES.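 Grown in 96-well plates, cells were treated for 48 hours with each compound at five concentrations. Insufficient inhibition: endpoint recorded as highest concentration tested. TGI marks complete inhibition of growth.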 Some results are limits rather than exact numbers.

As to `COC(=O)/C=C(/C(=O)OC)c1c(C)cc2c(C)cc(C)cc(C)c1-2`, the TGI in the test on A549 NSCLC is over 84.5 µM; in the test on BT-549 breast, 47.1 µM; in the test on HCT-116 colon, 18.5 µM; with HCT-15 colon, 18.8 µM; in the test on HOP-92 NSCLC it was over 100 µM; in the test with HT29 colon it was 28.3 µM. Besides, the TGI with IGROV1 ovarian is over 100 µM; in the test with LOX IMVI melanoma, over 57.8 µM; with MALME-3M melanoma it was over 65.5 µM; in the test with MCF7 breast, 36.6 µM; in the test on MDA-MB-231 breast, 15.3 µM; in the test with NCI-H522 lung it was 28.4 µM. The TGI in the test with OVCAR-5 ovarian is over 78.8 µM; in the test on RXF 393 renal it was 49.2 µM; with SF-539 CNS, 26.7 µM; in the test with SK-MEL-28 melanoma, over 100 µM; with SNB-75 CNS it was over 72.2 µM; with SR leukemia it was over 100 µM. Besides, the results for the TGI with T-47D breast and in the test on TK-10 renal were over 100 µM and over 83.3 µM, respectively.
Take `O=[N+]([O-])c1ccc(NC(=S)Nc2ccccn2)cc1`: the TGI in the test with A549 NSCLC, with BT-549 breast, with HCT-116 colon, with HCT-15 colon, in the test on HOP-92 NSCLC and with HT29 colon was over 100 µM each time. The TGI in the test with IGROV1 ovarian, in the test on LOX IMVI melanoma, in the test on MALME-3M melanoma, in the test with MCF7 breast, in the test on MDA-MB-231 breast and in the test on NCI-H522 lung was over 100 µM in each case. Moreover, the TGI in the test on OVCAR-5 ovarian was over 100 µM; with RXF 393 renal it was 17.8 µM; in the test on SF-539 CNS it was 55.5 µM; with SK-MEL-28 melanoma, over 100 µM; with SNB-75 CNS, 71.6 µM; in the test with SR leukemia it was over 100 µM. Moreover, the values for the TGI with T-47D breast and in the test on TK-10 renal were over 100 µM and over 93.2 µM, respectively.
Take `CN(C)/C=C/c1nnnn1-c1ccc(I)cc1`: the TGI with A549 NSCLC is over 100 µM; in the test with BT-549 breast it was 92 µM; in the test on HCT-116 colon it was 23.5 µM; in the test on HCT-15 colon it was 54.4 µM; in the test with HOP-92 NSCLC, 34.7 µM; in the test with HT29 colon, 59.2 µM. Moreover, the TGI was 38 µM with IGROV1 ovarian; 41.1 µM in the test with LOX IMVI melanoma; 44.7 µM in the test with MALME-3M melanoma; 65 µM in the test with MCF7 breast; 40.9 µM with MDA-MB-231 breast; 68.8 µM with NCI-H522 lung. Further, the TGI is 56.4 µM with OVCAR-5 ovarian; 59.6 µM in the test with RXF 393 renal; 42.5 µM in the test on SF-539 CNS; 65.7 µM in the test with SK-MEL-28 melanoma; 32.2 µM in the test with SNB-75 CNS; 41.6 µM in the test on SR leukemia. The TGI was found to be 44 µM in the test with T-47D breast and 87.1 µM with TK-10 renal.
Consider `Cc1ccc(S(=O)(=O)NC2=NS(=O)(=O)c3cc(C)c(Cl)cc3S2)cc1`, for which the TGI in the test on A549 NSCLC, in the test with BT-549 breast, in the test with HCT-116 colon, in the test with HCT-15 colon, in the test with HOP-92 NSCLC and in the test on HT29 colon was over 100 µM in each case. Further, the TGI in the test on IGROV1 ovarian, with LOX IMVI melanoma, in the test with MALME-3M melanoma, in the test on MCF7 breast, in the test with MDA-MB-231 breast and with NCI-H522 lung was over 100 µM throughout. For the same molecule, the TGI in the test with OVCAR-5 ovarian, in the test with RXF 393 renal, in the test on SF-539 CNS, in the test with SK-MEL-28 melanoma, with SNB-75 CNS and in the test on SR leukemia was over 100 µM in each case. Moreover, the TGI with T-47D breast and with TK-10 renal was over 100 µM each time.
Take `C/C1=C\CC/C(C)=C/C=C(/C(C)C)CC/C(C(=O)O)=C/CC1`: the TGI with A549 NSCLC, with BT-549 breast, with HCT-116 colon, with HCT-15 colon, with HOP-92 NSCLC and with HT29 colon was over 100 µM each time. The TGI in the test with IGROV1 ovarian, in the test on LOX IMVI melanoma, with MALME-3M melanoma, in the test on MCF7 breast, in the test with MDA-MB-231 breast and in the test with NCI-H522 lung was over 100 µM throughout. Moreover, the TGI in the test on OVCAR-5 ovarian, in the test with RXF 393 renal, in the test on SF-539 CNS, in the test with SK-MEL-28 melanoma, in the test with SNB-75 CNS and with SR leukemia was over 100 µM in each case. For the same molecule, the figures for the TGI in the test with T-47D breast and in the test on TK-10 renal were 75.6 µM and over 100 µM, respectively.
Turning to `Cc1cc(N)ccc1C=O`, the TGI in the test with A549 NSCLC, with BT-549 breast, with HCT-116 colon, in the test with HCT-15 colon, in the test with HOP-92 NSCLC and in the test on HT29 colon was over 100 µM in each case. Moreover, the TGI in the test on IGROV1 ovarian, in the test on LOX IMVI melanoma, with MALME-3M melanoma, in the test with MCF7 breast, in the test with MDA-MB-231 breast and with NCI-H522 lung was over 100 µM throughout. In addition, the TGI in the test with OVCAR-5 ovarian, with RXF 393 renal, with SF-539 CNS, in the test with SK-MEL-28 melanoma, in the test on SNB-75 CNS and in the test with SR leukemia was over 100 µM each time. The TGI with T-47D breast and in the test with TK-10 renal was over 100 µM in each case.
As for `Cc1ccc(/C(O)=C/c2nc3ccccc3[nH]c2=O)c(C)c1`, the TGI in the test on A549 NSCLC was over 58.8 µM; in the test on BT-549 breast it was over 57.5 µM; with HCT-116 colon it was 55.8 µM; with HCT-15 colon it was over 100 µM; in the test with HOP-92 NSCLC it was 16.9 µM; in the test on HT29 colon, over 86.3 µM. Further, the TGI is over 59.9 µM in the test on IGROV1 ovarian; over 100 µM in the test with LOX IMVI melanoma; 98.8 µM in the test with MALME-3M melanoma; over 100 µM with MCF7 breast; over 46.6 µM in the test on MDA-MB-231 breast; 38.4 µM in the test on NCI-H522 lung. Also, the TGI in the test with OVCAR-5 ovarian was over 100 µM; in the test on RXF 393 renal, over 49.2 µM; with SF-539 CNS, 31.6 µM; in the test on SK-MEL-28 melanoma, 54.6 µM; in the test on SNB-75 CNS, 20.3 µM; with SR leukemia, over 100 µM. Also, the TGI in the test on T-47D breast was over 69.7 µM; in the test with TK-10 renal it was 21.1 µM.
On to `COC(=O)C1(C)CCCC2(C)C3CCC4CC3(C=C4CO)CCC12` (centres undefined), for which the TGI in the test on A549 NSCLC was over 100 µM; in the test with BT-549 breast it was over 100 µM; with HCT-116 colon it was over 100 µM; with HCT-15 colon, 34.9 µM; in the test on HOP-92 NSCLC, over 100 µM; with HT29 colon, 30.9 µM. In addition, the TGI is over 100 µM with IGROV1 ovarian; 47.4 µM with LOX IMVI melanoma; over 100 µM with MALME-3M melanoma; 72.7 µM in the test with MCF7 breast; over 100 µM in the test on MDA-MB-231 breast; over 100 µM in the test on NCI-H522 lung. Also, the TGI in the test with OVCAR-5 ovarian was over 100 µM; with RXF 393 renal, over 100 µM; in the test with SF-539 CNS, over 100 µM; with SK-MEL-28 melanoma, over 100 µM; in the test on SNB-75 CNS, over 100 µM; in the test on SR leukemia it was 62 µM. The TGI in the test with T-47D breast and with TK-10 renal was over 100 µM each time.
For `Cc1cc(-c2nc3cc(O)ccc3s2)ccc1N`, the TGI with A549 NSCLC is over 100 µM; with BT-549 breast it was over 100 µM; with HCT-116 colon, 42.7 µM; with HCT-15 colon, over 100 µM; with HOP-92 NSCLC, over 100 µM; in the test on HT29 colon, 50.7 µM. The TGI in the test on IGROV1 ovarian, with LOX IMVI melanoma, in the test with MALME-3M melanoma, in the test with MCF7 breast, in the test with MDA-MB-231 breast and in the test on NCI-H522 lung was over 100 µM in each case. Besides, the TGI with OVCAR-5 ovarian is 75.5 µM; in the test with RXF 393 renal, over 100 µM; with SF-539 CNS it was 49.3 µM; in the test with SK-MEL-28 melanoma, 75.5 µM; with SNB-75 CNS, 95.5 µM; with SR leukemia it was over 100 µM. Moreover, the TGI with T-47D breast is 72.3 µM; in the test on TK-10 renal, over 100 µM.
In the case of `O=C(OC(/C=C/c1ccccc1)P1(=O)N(Cc2ccccc2)[C@@H]2CCCC[C@H]2N1Cc1ccccc1)c1ccccc1` (some centres undefined), the TGI was over 100 µM in the test with A549 NSCLC; over 55.8 µM in the test with BT-549 breast; over 100 µM in the test on HCT-116 colon; over 100 µM with HCT-15 colon; 8.08 µM in the test with HOP-92 NSCLC; over 100 µM with HT29 colon. The TGI with IGROV1 ovarian was over 25.6 µM; in the test with LOX IMVI melanoma, over 74.9 µM; with MALME-3M melanoma, over 75.5 µM; with MCF7 breast, over 100 µM; with MDA-MB-231 breast it was 30.3 µM; with NCI-H522 lung it was over 30.6 µM. The TGI was over 100 µM in the test on OVCAR-5 ovarian; over 100 µM with RXF 393 renal; over 100 µM in the test with SF-539 CNS; over 100 µM in the test with SK-MEL-28 melanoma; over 28.1 µM in the test with SNB-75 CNS; 15.2 µM in the test on SR leukemia. For the same molecule, the TGI in the test with T-47D breast and with TK-10 renal was over 100 µM throughout.
On to `COC(=O)/C(=C\c1cn(C(C)=O)c2ccccc12)P(=O)(OC)OC`, for which the TGI with A549 NSCLC was 35.8 µM; in the test on BT-549 breast it was 29.6 µM; with HCT-116 colon it was 28 µM; in the test on HCT-15 colon, 28.1 µM; with HOP-92 NSCLC it was 33.8 µM; in the test on HT29 colon, 29.7 µM. Also, the TGI with IGROV1 ovarian amounted to 44.9 µM; in the test on LOX IMVI melanoma it was 20.3 µM; in the test with MALME-3M melanoma it was 52 µM; in the test on MCF7 breast it was 26.4 µM; with MDA-MB-231 breast, 24.1 µM; in the test on NCI-H522 lung it was 23.2 µM. Also, the TGI in the test on RXF 393 renal was 32.8 µM; in the test with SF-539 CNS, 38.7 µM; with SK-MEL-28 melanoma, 55.1 µM; with SNB-75 CNS it was 26.4 µM; with SR leukemia, over 100 µM; in the test on T-47D breast it was 33.1 µM. In addition, the TGI in the test on TK-10 renal came out at 36 µM.
